Entries after “also recorded” stand apart in the source; their conditions may differ.
Key:
B. infantis ATCC 15697 = experiment: Bacterial growth assay (OD600); format: cell-based, Bifidobacterium infantis; conditions: 1% carbohydrate in sMRS+cysteine
Procedure: (§1) Coy Laboratory Products, Grass Lake, Mich.). Subsequently, the cultures are passed twice on a semi-synthetic MRS medium ([…] which is supplemented with 1% (w/v) filter-sterilized glucose as the sole carbohydrate source. […] For bifidobacteria strains, the same procedure is followed except all media are supplemented with 0.5 g/l L-cysteine/HCl. [table] After the 2nd pass in sMRS+glucose+cysteine, the cultures are washed once with 10 mL of sterile sMRS+cysteine (no carbohydrate), resuspended in 10 ml of sterile sMRS+cysteine (no carbohydrate) and then used as a 1% inoculum. The carbohydrates are sterilized with a 0.22 micron filter and used at a 1% final concentration. Cell growth is performed in 250 μL of sMRS+cysteine covered with 50 μL of mineral oil in a Bioscreen 100-well Honeycomb plate. […] The plate reader is operated in discontinuous mode, with absorbance readings performed in 30-minute intervals, and preceded by 30-second shaking intervals at maximum speed. Controls consist of inoculated medium lacking carbohydrate. […] All three plates include a positive control (glucose) and negative control (no carbohydrate). The OD600 data for each carbohydrate is corrected by subtracting the OD600 of the basal media (sMRS)+cysteine from the sample plate for each probiotic. Maximum OD is determined by inspection of the corrected growth data. OD is determined by subtracting the initial corrected OD (time point 0) from the maximum corrected OD. Samples are grown in biologically independent triplicates and the resulting growth kinetic data are expressed as the mean of these replicates. For the growth curve plots, OD600 vs. time is first plotted for the bacteria grown on medium lacking carbohydrate (sMRS). For all other carbohydrates, the OD600 data is corrected by subtracting the OD600 of sMRS.

B. infantis M-63 = experiment: Bacterial growth assay (OD600); format: cell-based, Bifidobacterium infantis; conditions: 1% carbohydrate in sMRS+cysteine
Procedure: as §1

HT-29 cells = experiment: Alkaline phosphatase activity per milligram of protein (cell differentiation), HT-29; format: cell-based, human; conditions: Example 48: LNnT or 2′FL 20, 200, 2000 mg/L; 6′SL 40, 400; 72 hours
Procedure: In a first experiment, HT-29 cells, which model the immature epithelial cells of the small intestine, are incubated in a humidified atmosphere of 5% carbon dioxide at 37° C. in the presence of LNnT or 2′FL at concentrations of 0 mg/L (“0”), 20 mg/L (“20”), 200 mg/L (“200”), and 2000 mg/L (“2000”) or in the presence of 6′SL at concentrations of 0 mg/mL (“0”), 40 mg/mL (“40”), 400 mg/mL (“400”), and 4000 mg/mL (“4000”) for 72 hours. The culture medium utilized is Dulbecco's Modified Eagle Medium (Life Technologies, Foster City Calif.) supplemented with 10% fetal calf serum and 2 mM glutamine. The controls (“energy”) consist of 91.5 mg lactose and 64.2 mg N-acetyllactosamine/L for LNnT; 133 mg lactose and 67 mg fucose/L for 2′FL; and 195 mg lactose and 205 mg/L sialic acid for 6′SL. The impact of the LNnT, 2′FL, and 6′SL at various levels and the controls on HT-29 cell proliferation is measured using a conventional BrdU assay, which measures the number of cells that have recently synthesized DNA. […] Additionally, the impact of LNnT, 2′FL, and 6′SL at various levels and the controls on the alkaline phosphatase activity per milligram of protein for HT-29 cells, which is an indicator of cell differentiation, is measured.

Bifidobacterium spp. = experiment: qPCR of bacterial populations in in vitro fecal fermentation; format: cell-based; conditions: overall, 0-12 h fermentation
bifidobacteria strains = experiment: Bacterial growth assay (OD600), panel of 12 strains; format: cell-based, Bifidobacterium; conditions: 1% carbohydrate in sMRS+cysteine
Procedure: as §1

B. breve ATCC 15700 = experiment: Bacterial growth assay (OD600); format: cell-based, Bifidobacterium breve; conditions: 1% carbohydrate in sMRS+cysteine
Procedure: Coy Laboratory Products, Grass Lake, Mich.). Subsequently, the cultures are passed twice on a semi-synthetic MRS medium ([…] which is supplemented with 1% (w/v) filter-sterilized glucose as the sole carbohydrate source. […] For bifidobacteria strains, the same procedure is followed except all media are supplemented with 0.5 g/l L-cysteine/HCl. […] After the 2nd pass in sMRS+glucose+cysteine, the cultures are washed once with 10 mL of sterile sMRS+cysteine (no carbohydrate), resuspended in 10 ml of sterile sMRS+cysteine (no carbohydrate) and then used as a 1% inoculum. The carbohydrates are sterilized with a 0.22 micron filter and used at a 1% final concentration. Cell growth is performed in 250 μL of sMRS+cysteine covered with 50 μL of mineral oil in a Bioscreen 100-well Honeycomb plate. […] The plate reader is operated in discontinuous mode, with absorbance readings performed in 30-minute intervals, and preceded by 30-second shaking intervals at maximum speed. Controls consist of inoculated medium lacking carbohydrate. […] Maximum OD is determined by inspection of the corrected growth data. OD is determined by subtracting the initial corrected OD (time point 0) from the maximum corrected OD. Samples are grown in biologically independent triplicates and the resulting growth kinetic data are expressed as the mean of these replicates. […]

**Q.** `CC(=O)N[C@H]1[C@H](O[C@H]2[C@@H](O)[C@@H](CO)O[C@@H](O[C@H]3[C@H](O)[C@@H](O)C(O)O[C@@H]3CO)[C@@H]2O)O[C@H](CO)[C@@H](O[C@@H]2O[C@H](CO)[C@H](O)[C@H](O)[C@H]2O)[C@@H]1O` (mixture of isomers) [LNnT, Lacto-N-neotetraose] was tested. Which “growth / ability to ferment (OD600)” value (B. infantis ATCC 15697) did it give?
**A.** Its value is “grow well”.

**Q.** What about the “growth / ability to ferment (OD600)” value (B. infantis M-63) of the same compound?
**A.** The value was “grow well”.

**Q.** What about the “alkaline phosphatase activity per milligram of protein (cell differentiation)” value (HT-29 cells) of the same compound?
**A.** Its value is “trend toward an increase”.

**Q.** What about the bifidobacteria populations (Bifidobacterium spp.) of the same compound?
**A.** Its bifidobacteria populations is “may also be bifidogenic; also recorded: tended to generally increase bifidobacteria levels”.

**Q.** And the “growth / ability to ferment (OD600)” value (bifidobacteria strains)?
**A.** The value was “B. breve ATCC 15700, B. infantis ATCC 15697 and B. infantis M-63 are able to ferment”.

**Q.** What about the “growth / ability to ferment (OD600)” value (B. breve ATCC 15700) of the same compound?
**A.** The value was “grow well”.

Reference: US11337990B2, “Human milk oligosaccharides to promote growth of beneficial bacteria” (ABBOTT LABORATORIES, priority 2010, dated 2022)
